Test results from patent publication US9302999B2, “Substituted triazoles as herbicides” (E. I. DU PONT DE NEMOURS AND COMPANY, priority 2012, dated 2016).

What was measured:
Assay type in all cases: in vivo
[1] = system: crabgrass, large (large crabgrass, Digitaria sanguinalis); assay: Test A pre-/postemergence: crabgrass, large
How it was run: (§1)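 Pre: directed soil spray after planting in loam + sand. Post: same formulation (non-phytotoxic solvent + surfactant) on 1–2-leaf plants, 2–10 cm. Greenhouse ~10 d; visual injury 0–100 vs untreated.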

[2] = system: velvetleaf (Abutilon theophrasti); assay: Test A pre-/postemergence: velvetleaf
How it was run: as §1

[3] = system: barnyardgrass (Echinochloa crus-galli); assay: Test B flooded paddy: barnyardgrass; conditions: Flood; 250 g ai/ha; applied to paddy water at 2-leaf stage; visually evaluated after 13 to 15 days
How it was run: (§2)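 2-leaf plants; pots flooded 3 cm over soil; compound added to paddy water, depth kept constant. Greenhouse 13–15 d. Visual rating vs controls, 0–100 scale (100 = complete control); dash = no result.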

rice (Oryza sativa) = assay: Test B flooded paddy: rice; conditions: Flood; 250 g ai/ha; applied to paddy water at 2-leaf stage; visually evaluated after 13 to 15 days
How it was run: as §2

[4] = system: morningglory (Ipomoea spp.); assay: Test A pre-/postemergence: morningglory
How it was run: as §1

[5] = system: ducksalad (Heteranthera limosa); assay: Test B flooded paddy: ducksalad; conditions: Flood; 250 g ai/ha; applied to paddy water at 2-leaf stage; visually evaluated after 13 to 15 days
How it was run: as §2

[6] = system: sedge, umbrella (small-flower umbrella sedge Cyperus difformis); assay: Test B flooded paddy: sedge, umbrella; conditions: Flood; 250 g ai/ha; applied to paddy water at 2-leaf stage; visually evaluated after 13 to 15 days
How it was run: as §2

[7] = system: wheat (Triticum aestivum); assay: Test A pre-/postemergence: wheat
How it was run: as §1

[8] = system: foxtail, giant (giant foxtail, Setaria faberii); assay: Test A pre-/postemergence: foxtail, giant
How it was run: as §1

[9] = system: pigweed (Amaranthus retroflexus); assay: Test A pre-/postemergence: pigweed
How it was run: as §1

[10] = system: barnyardgrass (Echinochloa crus-galli); assay: Test A pre-/postemergence: barnyardgrass
How it was run: as §1

corn (Zea mays) = assay: Test A pre-/postemergence: corn
How it was run: as §1

[11] = Postemergence, 125 g ai/ha, 0 to 100 scale, 0 is no effect, 100 is complete control
[12] = Postemergence, 500 g ai/ha, visual rating on 0 to 100 scale (0 no effect, 100 complete control), approximately ten days
[13] = Preemergence, 125 g ai/ha, 0 to 100 scale (0 no effect, 100 complete control)
[14] = Preemergence, 500 g ai/ha, 0 to 100 scale, 0 is no effect, 100 is complete control
[15] = Preemergence, 125 g ai/ha, 0 to 100 scale where 0 is no effect and 100 is complete control
[16] = Preemergence, 500 g ai/ha, 0 to 100 scale (0 no effect, 100 complete control)

CSc1ccccc1-n1nc(C)c(C(=O)c2cccc(C(F)(F)F)c2)n1 [Compound 6]
Crabgrass, Large plant response rating [1, 11]: 0 | Crabgrass, Large plant response rating [1, 12]: 20 | Plant response rating, Crabgrass, Large [1, 13]: 0 | Plant response rating, Crabgrass, Large [1, 14]: 0 | Velvetleaf plant response rating [2, 11]: 0 | Velvetleaf plant response rating [2, 12]: 0 | Plant response rating, Velvetleaf [2, 13]: 0 | Plant response rating, Velvetleaf [2, 14]: 0 | Plant response rating, Barnyardgrass (0 to 100 scale, 0 is no effect, 100 is complete control) [3]: 0 | Plant response rating, Rice (0 to 100 scale, 0 is no effect, 100 is complete control) (rice (Oryza sativa)): 0 | Morningglory plant response rating [4, 11]: 0 | Morningglory plant response rating [4, 12]: 0 | Plant response rating, Morningglory [4, 13]: 0 | Plant response rating, Morningglory [4, 14]: 0 | Plant response rating, Ducksalad (0 to 100 scale, 0 is no effect, 100 is complete control) [5]: 0 | Plant response rating, Sedge, Umbrella (0 to 100 scale, 0 is no effect, 100 is complete control) [6]: 0 | Wheat plant response rating [7, 11]: 0 | Wheat plant response rating [7, 12]: 0 | Plant response rating, Wheat [7, 13]: 0 | Plant response rating, Wheat [7, 14]: 0 | Foxtail, Giant plant response rating [8, 11]: 0 | Foxtail, Giant plant response rating [8, 12]: 10 | Plant response rating, Foxtail, Giant [8, 13]: 0 | Plant response rating, Foxtail, Giant [8, 14]: 0 | Pigweed plant response rating [9, 11]: 0 | Pigweed plant response rating [9, 12]: 30 | Plant response rating, Pigweed [9, 13]: 0 | Plant response rating, Pigweed [9, 14]: 0 | Barnyardgrass plant response rating [10, 11]: 0 | Barnyardgrass plant response rating [10, 12]: 0 | Plant response rating, Barnyardgrass [10, 13]: 0 | Plant response rating, Barnyardgrass [10, 14]: 0 | Corn plant response rating (corn (Zea mays); [11]): 0 | Corn plant response rating (corn (Zea mays); [12]): 0 | Plant response rating, Corn (corn (Zea mays); [13]): 0 | Plant response rating, Corn (corn (Zea mays); [14]): 0

CC(C)c1nn(-c2ccc(F)cc2)nc1Cc1cccc(C(F)(F)F)c1 [Compound 150]
Plant response rating, Crabgrass, Large [1, 11]: 0 | Crabgrass, Large plant response rating [1, 12]: 20 | Plant response rating, Crabgrass, Large [1, 15]: 0 | Plant response rating, Crabgrass, Large [1, 16]: 0 | Plant response rating, Velvetleaf [2, 11]: 0 | Velvetleaf plant response rating [2, 12]: 10 | Plant response rating, Velvetleaf [2, 15]: 0 | Plant response rating, Velvetleaf [2, 16]: 0 | Plant response rating, Barnyardgrass (0 to 100 scale, 0 is no effect, 100 is complete control) [3]: 20 | Plant response rating, Rice (0 to 100 scale, 0 is no effect, 100 is complete control) (rice (Oryza sativa)): 0 | Plant response rating, Morningglory [4, 11]: 0 | Morningglory plant response rating [4, 12]: 0 | Plant response rating, Morningglory [4, 15]: 0 | Plant response rating, Morningglory [4, 16]: 0 | Plant response rating, Ducksalad (0 to 100 scale, 0 is no effect, 100 is complete control) [5]: 0 | Plant response rating, Sedge, Umbrella (0 to 100 scale, 0 is no effect, 100 is complete control) [6]: 0 | Plant response rating, Wheat [7, 11]: 0 | Wheat plant response rating [7, 12]: 0 | Plant response rating, Wheat [7, 15]: 0 | Plant response rating, Wheat [7, 16]: 0 | Plant response rating, Foxtail, Giant [8, 11]: 0 | Foxtail, Giant plant response rating [8, 12]: 0 | Plant response rating, Foxtail, Giant [8, 15]: 0 | Plant response rating, Foxtail, Giant [8, 16]: 0 | Plant response rating, Pigweed [9, 11]: 10 | Pigweed plant response rating [9, 12]: 50 | Plant response rating, Pigweed [9, 15]: 0 | Plant response rating, Pigweed [9, 16]: 0 | Plant response rating, Barnyardgrass [10, 11]: 0 | Barnyardgrass plant response rating [10, 12]: 0 | Plant response rating, Barnyardgrass [10, 15]: 0 | Plant response rating, Barnyardgrass [10, 16]: 0 | Plant response rating, Corn (corn (Zea mays); [11]): 0 | Corn plant response rating (corn (Zea mays); [12]): 10 | Plant response rating, Corn (corn (Zea mays); [15]): 0 | Plant response rating, Corn (corn (Zea mays); [16]): 0
